# In article PMC6534257, “Leishmania infantum arginase: biochemical characterization and inhibition by naturally occurring phenolic substances” (Journal of Enzyme Inhibition and Medicinal Chemistry, 2019):
# Several values for one entry are separate records, joined by “and”; a condition that tells them apart may be missing. Equal entries are not always repeated. Entries after “also recorded” stand apart in the source; their conditions may differ. Where two headings read alike, the source gives them in different places.
# Assays:
# L. amazonensis arginase = settings: cited from earlier work; for inhibition of L. amazonensis arginase activity: final concentration of 20 μM ref 13; for IC50: read-out: IC50 against L. amazonensis arginase; for effect on L. amazonensis arginase (in words): phenolics without catechol group ref 15
# L. amazonensis = settings: cited from earlier work; for reduction of lesion size and parasite burden (in words): compared with reference drug Glucantime ref 42; for mice death or loss of body weight (in words): treated BALB/c mice ref 42
# [1] = system: L. amazonensis promastigotes; settings: cited from earlier work
# [2] = system: BALB/c mice peritoneal macrophages; settings: cited from earlier work
# [3] = system: L. infantum promastigotes; assay: Inhibition of L. infantum promastigotes growth (resazurin); format: cell-based, Leishmania infantum; settings: for SI PRO (selectivity index CC50/IC50, promastigotes): CC50 RAW 264.7 / IC50 promastigotes; for IC50: Leishmania infantum, read-out: Promastigotes IC50±SE; for IC50 / Promastigotes IC50±SE: 96 h, 26 °C, resazurin
# Experimental: The parasite growth inhibition assays were performed on 96-well microplates, where the selected ARGLi inhibitors were previously diluted (1–200 μg/mL). Subsequently, promastigote forms of L. infantum collected in late logarithmic phase (96 h) were added to microplates at the final concentration of 10^6 parasites/mL. Microplates were incubated at 26 °C for 96 h. After the incubation period, parasites viability was determined using 0.005% resazurin[30]. The 50% inhibitory concentration (IC50) was determined from the dose-response curves generated from the data.
# [4] = system: L. infantum-infected RAW 264.7 macrophages; assay: Nitric oxide production by infected macrophages (Griess reaction); format: cell-based; settings: for increase in nitrite levels in comparison to the control: 48 h; for effect on NO production by infected macrophages (in words): 48 h treatment
# Experimental: (§1) The intracellular anti-amastigote activity was performed according to previously described procedures[31] with some modifications. Initially, RAW 264.7 macrophages were distributed in 96-well plates and, after adherence (incubation for 2 h), cells were washed twice with phosphate buffer saline (PBS, pH 7.2). Then, the adherent cells were infected with promastigote forms of L. infantum at the stationary phase of growth in a proportion of 10 parasites/macrophage. After 4 h of interaction at 37 °C and 5% CO2 atmosphere, free parasites were washed away with PBS and infected macrophages were incubated for another 24 h to allow differentiation into amastigotes. After this time, infected cells were treated for 48 h with increasing concentrations of the selected inhibitor. Subsequently, the culture supernatant was collected for evaluation of nitric oxide production using the Griess reaction. Cells were washed with PBS, then Schneider’s medium supplemented with 5% FBS was added and the plate was incubated at 26 °C for 72 h. The parasite survival was estimated by viability of differentiated promastigote forms recovered from the cultures using MTT (5 mg/mL). The results were expressed as the percentage of viability in relation to that obtained for the control (100%). The IC50 for amastigote forms was calculated from the dose-response curves generated from the data.
# In order to determine if ARGLi inhibitors were capable of modulating the host cell response, RAW 264.7 macrophages were infected with promastigote forms of L. infantum and treated with different concentrations of inhibitors for 48 h. After treatment, NO production was measured. […] This increase is similar to that observed for the reference drug Fungizone® (Figure 5(B)). The effect of caffeic acid on NO production may be a result of macrophage arginase inhibition and consequent oxidation of accumulated L-arginine by inducible NO synthase (iNOS).
# Figure 5. Nitric oxide production by L. infantum-infected RAW 264.7 macrophages treated with different concentrations of ARGLi inhibitors. (A) Treatment with 3.1–200 μg/mL of rosmarinic acid (black), caffeic acid (light gray), and catechin (dark gray). (B) Treatment with 0.062–0.5 μg/mL of the reference drug fungizone. Control (white) represents the production of nitric oxide by infected and untreated macrophages. Nitrite concentration was measured by the Griess reaction and data represent mean ± SE of two independent experiments.
# [5] = system: intracellular amastigotes of L. amazonensis; parameters: method as in PMID 24906989; settings: cited from earlier work
# [6] = Cytotoxicity in RAW 264.7 macrophages (MTT); format: cell-based; settings: mouse, read-out: RAW 264.7 CC50±SE
# Experimental: (§2) RAW 264.7 macrophages were cultured in polystyrene culture flasks containing DMEM medium supplemented with 10% FBS at 37 °C and 5% CO2 atmosphere. For cytotoxic evaluation, 48 h cultured cells were harvested, washed with culture medium, and distributed into 96-well culture plates at 10^5 cells/well concentration. The cells were allowed to adhere for 2 h prior to the addition of increasing inhibitor concentrations (31–1000 µg/mL). Treated cell cultures were incubated for 48 h under the same experimental conditions. After this period, cell viability was determined by colorimetric assay using MTT solution (5 mg/mL) as an indicator. The 50% cytotoxic concentration (CC50) was calculated by analysing the dose-response curves generated from the data.
# bovine hepatic arginase = system: bovine hepatic arginase; parameters: method as in PMID 27776374; settings: cited from earlier work; for percentage of inhibition of bovine hepatic arginase: 100 μM ref 37
# [7] = system: L. infantum intracellular amastigotes; assay: Intracellular anti-amastigote activity in infected RAW 264.7 macrophages; format: cell-based, Leishmania infantum; settings: for SI AMA (selectivity index CC50/IC50, intracellular amastigotes): CC50 RAW 264.7 / IC50 intracellular amastigotes; for IC50: Leishmania infantum, RAW264.7, 48 h, read-out: Intracellular amastigotes IC50±SE
# Experimental: as §1
# [8] = system: Leishmania infantum arginase (ARGLi); assay: ARGLi inhibition by phenolic substances (urea production); format: biochemical; settings: 100 µM substance, 50 mM L-arginine, pH 9.5, 37 °C, 5 min
# RAW 264.7 macrophages = assay: Cytotoxicity in RAW 264.7 macrophages (MTT); format: cell-based; settings: 48 h
# Experimental: as §2
# [9] = system: axenic amastigote forms of L. donovani; parameters: method as in PMID 16569852; settings: cited from earlier work
# ARGLi = settings: read-out: Km for L-arginine; 1 to 50 mM L-arginine, pH 9.5, 37 °C
# Experimental: ARGLi (0.2 µg/mL) was incubated with L-arginine at concentrations ranging from 1 to 50 mM in 50 mM CHES buffer (pH 9.5) at 37 °C for 5 min. Vmax and Km values were determined by the analysis of the initial velocity versus substrate concentration curve using the Michaelis–Menten equation in Graph Prism 6.
# [10] = infected RAW 264.7, 48 h treatment
structure (smiles),measurement,setting,value
Oc1cc(O)c2c(c1)O[C@H](c1ccc(O)c(O)c1)[C@@H](O)C2 [(+)-catechin],inhibition of L. amazonensis arginase activity,L. amazonensis arginase,more than 50%
Oc1cc(O)c2c(c1)O[C@H](c1ccc(O)c(O)c1)[C@H](O)C2 [(−)-epicatechin],inhibition of L. amazonensis arginase activity,L. amazonensis arginase,more than 50%
"O=C(O)/C=C/c1ccc(O)c(O)c1 [Caffeic acid, caffeic acid]",reduction of lesion size and parasite burden (in words),L. amazonensis,more effective in reducing lesion size and parasite burden
same,mice death or loss of body weight (in words),L. amazonensis,did not lead to mice death or significant loss of body weight
same,IC50 against L. amazonensis promastigote forms,[1],0.9 ± 0.2 µg/mL
same,CC50 for BALB/c mice peritoneal macrophages,[2],32.5 ± 2.0 µg/mL
same,"SI PRO (selectivity index CC50/IC50, promastigotes)",[3],20.05
same,IC50,[3],11 µg/mL and 60.8 µM
same,increase in nitrite levels in comparison to the control,[4]; 100 µg/mL,234.6%
same,increase in nitrite levels in comparison to the control,[4]; 200 µg/mL,311.5%
same,effect on NO production by infected macrophages (in words),[4],significantly increased nitric oxide production; also recorded: significantly increased NO production
same,IC50 for intracellular amastigotes of L. amazonensis,[5],2.9 ± 0.3 µg/mL
same,CC50 at 48 h,[6]; RAW 264.7 macrophages,220 µg/mL and 1.22 mM
same,percentage of inhibition of bovine hepatic arginase,bovine hepatic arginase,61.3 ± 4.1%
same,IC50,bovine hepatic arginase,86.7 µM
same,"SI AMA (selectivity index CC50/IC50, intracellular amastigotes)",[7],55.69
same,IC50,[7]; [10],3.95 µg/mL and 21.9 µM
"Oc1cc(O)c2c(c1)O[C@H](c1ccc(O)c(O)c1)[C@@H](O)C2 [Catechin, catechin, reference compound]",percentage of inhibition of ARGLi activity,[8],49.02 ± 14.92%
same,IC50 for L. amazonensis promastigotes,[1]; catechin isolated from Stryphnodendron obovatum stem bark ref 47,43.2 ± 2.1 µg/mL
same,Promastigotes IC50±SE,[3],114.8 ± 14.65 µg/mL
same,"SI PRO (selectivity index CC50/IC50, promastigotes)",[3],2.23
same,IC50,[3],115 µg/mL and 395 µM
same,effect on NO production by infected macrophages (in words),[4],did not affect NO production
same,RAW 264.7 CC50±SE,RAW 264.7 macrophages,256.98 ± 0.64 µg/mL
same,CC50 at 48 h,[6]; RAW 264.7 macrophages,257 µg/mL and 885 µM
same,"SI AMA (selectivity index CC50/IC50, intracellular amastigotes)",[7],3.08
same,IC50,[7]; [10],83.2 µg/mL and 287 µM
same,Intracellular amastigotes IC50±SE,[7]; [10],83.28 ± 10.6 µg/mL
"O=C(/C=C/c1ccc(O)c(O)c1)O[C@@H]1C[C@](O)(C(=O)O)C[C@@H](O)[C@H]1O [Chlorogenic acid, chlorogenic acid]",inhibition of L. amazonensis arginase activity,L. amazonensis arginase,more than 50%
"COc1cc(-c2oc3cc(O)cc(O)c3c(=O)c2O)ccc1O [Isorhamnetin, isorhamnetin]",IC50 axenic amastigote forms of L. donovani,[9],3.8 µg/mL
same,Promastigotes IC50±SE,[3],258.7 ± 9.50 µg/mL
same,IC50,[3],263 µg/mL and 818 µM
same,CC50 at 48 h,[6],> 1000 µg/mL and > 3 mM
N=C(N)NCCC[C@H](N)C(=O)O [L-arginine],Km,ARGLi,5.1 ± 1.1 mM
"O=c1c(O)c(-c2ccc(O)c(O)c2)oc2cc(O)cc(O)c12 [Quercetin, quercetin, reference compound]",IC50 against L. donovani,[9],1 µg/mL
same,percentage of inhibition of ARGLi activity,[8],67.05 ± 10.36%
same,IC50,L. amazonensis arginase,4.3 µM
same,percentage of inhibition of bovine hepatic arginase,bovine hepatic arginase,64.4 ± 2.5%
same,IC50,bovine hepatic arginase,31.2 µM
"COc1cc(O)c2c(=O)c(O)c(-c3ccc(O)c(O)c3)oc2c1 [Rhamnetin, rhamnetin]",IC50 axenic amastigote forms of L. donovani,[9],4.6 µg/mL
same,percentage of inhibition of ARGLi activity,[8],~56%
same,percentage of inhibition of ARGLi activity,[8]; listed as rhamnetin,more than 50%
same,Promastigotes IC50±SE,[3],263.2 ± 3.87 µg/mL
same,IC50,[3],259 µg/mL and 832 µM
same,CC50 at 48 h,[6]; RAW 264.7 macrophages,> 1000 µg/mL and > 3 mM
"COc1ccc(/C=C/c2cc(O)cc(O[C@@H]3O[C@H](CO)[C@@H](O)[C@H](O)[C@H]3O)c2)cc1O [Rhaponticin, rhaponticin]",percentage of inhibition of ARGLi activity,[8],more than 50%
same,IC50,[3],> 400 µg/mL and > 1 mM
same,antileishmanial activity against promastigotes (in words),[3]; highest concentration tested,did not inhibit promastigote growth at the highest concentration tested
same,CC50 at 48 h,[6]; RAW 264.7 macrophages,825 µg/mL and 1.96 mM
"O=C(/C=C/c1ccc(O)c(O)c1)O[C@H](Cc1ccc(O)c(O)c1)C(=O)O [Rosmarinic acid, rosmarinic acid]",reduction of lesion size and parasite burden (in words),L. amazonensis,more effective in reducing lesion size and parasite burden
same,mice death or loss of body weight (in words),L. amazonensis,did not lead to mice death or significant loss of body weight
same,IC50 against L. amazonensis promastigote forms,[1],0.2 ± 0.1 µg/mL
same,CC50 for BALB/c mice peritoneal macrophages,[2],33.5 ± 1.4 µg/mL
same,"SI PRO (selectivity index CC50/IC50, promastigotes)",[3],8.56
same,IC50,[3],20.6 µg/mL and 57.3 µM
same,effect on NO production by infected macrophages (in words),[4],did not affect NO production
same,IC50 for intracellular amastigotes of L. amazonensis,[5],1.7 ± 0.4 µg/mL
same,CC50 at 48 h,[6],177 µg/mL and 491 µM
same,"SI AMA (selectivity index CC50/IC50, intracellular amastigotes)",[7],61.79
same,IC50,[7]; [10],2.86 µg/mL and 7.9 µM
O=c1cc(-c2ccc(O)cc2)oc2cc(O)cc(O)c12 [apigenin],effect on L. amazonensis arginase (in words),L. amazonensis arginase,little effect
O=c1c(O)c(-c2ccc(O)c(O)c2)oc2cc(O)ccc12 [fisetin],IC50,L. amazonensis arginase,1.4 ± 0.3 µM
O=c1c(O)c(-c2ccccc2)oc2cc(O)cc(O)c12 [galangin],IC50,L. amazonensis arginase,100 µM
O=c1cc(-c2ccc(O)c(O)c2)oc2cc(O)c([C@@H]3O[C@H](CO)[C@@H](O)[C@H](O)[C@H]3O)c(O)c12 [isoorientin],IC50,L. amazonensis arginase,9 ± 1 µM
O=c1c(O[C@@H]2O[C@H](CO)[C@@H](O)[C@H](O)[C@H]2O)c(-c2ccc(O)c(O)c2)oc2cc(O)cc(O)c12 [isoquercitrin],inhibition of L. amazonensis arginase activity,L. amazonensis arginase,more than 50%
O=c1cc(-c2ccc(O)cc2)oc2cc(O)c([C@@H]3O[C@H](CO)[C@@H](O)[C@H](O)[C@H]3O)c(O)c12 [isovitexin],effect on L. amazonensis arginase (in words),L. amazonensis arginase,little effect
"O=c1c(O)c(-c2ccc(O)cc2)oc2cc(O)cc(O)c12 [kaempferol, reference compound]",IC50 against L. donovani,[9],2.9 µg/mL
same,IC50,L. amazonensis arginase,50 µM
O=c1cc(-c2ccc(O)c(O)c2)oc2cc(O)cc(O)c12 [luteolin],IC50,L. amazonensis arginase,9 ± 1 µM
O=c1cc(-c2ccc(O)c(O)c2)oc2c([C@@H]3O[C@H](CO)[C@@H](O)[C@H](O)[C@H]3O)c(O)cc(O)c12 [orientin],IC50,L. amazonensis arginase,16 ± 2 µM
O=c1cc(-c2ccc(O)cc2)oc2c([C@@H]3O[C@H](CO)[C@@H](O)[C@H](O)[C@H]3O)c(O)cc(O)c12 [vitexin],effect on L. amazonensis arginase (in words),L. amazonensis arginase,little effect
